Results published in US20150231109A1, “COMBINATIONS (CATECHINS AND METHOTREXATE) FOR USE IN THE TREATMENT OF MELANOMAS” (UNIVERSIDAD DE MURCIA, priority 2012, published 2015).

Key:
[1] = tested on: proteasome; test: Inhibition of the proteasome; assay type: biochemical; details: data not shown
[2] = molecular target: glutamate dehydrogenase (Homo sapiens, UniProt P00367); test: Inhibition of glutamate dehydrogenase; assay type: biochemical; details: data not shown
[3] = molecular target: 5-cytosine DNA methyltransferase-1 (Homo sapiens, UniProt P26358); test: Inhibition of 5-cytosine DNA methyltransferase-1; assay type: biochemical; details: data not shown
[4] = molecular target: T1, DHFR (Homo sapiens, UniProt P00374); details: Sanchez-del-Campo et al., 2009a; cited from earlier work
T1 sequence (P00374 1-187): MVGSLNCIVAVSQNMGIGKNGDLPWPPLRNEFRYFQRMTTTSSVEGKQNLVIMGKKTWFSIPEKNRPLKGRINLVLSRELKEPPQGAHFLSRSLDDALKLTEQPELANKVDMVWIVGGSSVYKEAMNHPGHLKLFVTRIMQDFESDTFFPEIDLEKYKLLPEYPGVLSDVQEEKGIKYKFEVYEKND

[5] = tested on: B16/F10 primary splenic tumors; test: Primary spleen tumors after intrasplenic injection of luciferase-tagged B16/F10 cells; assay type: in vivo, mouse
Description: C, Luciferase imaging of control and MTX/TMECG-treated mice 12 days post-tumor cell injection. Beetle luciferin (120 mg/kg of mouse) was injected intraperitoneally. The values (means±s.d.) are representative of three independent experiments. *P=0.007; **P=0.002. […] Xenograft tumors treated with DMSO (vehicle) or MTX/TMECG (1 mg/kg/day and 50 mg/kg/day, respectively) over 14-days. […] Representative images taken from two independent experiments (n=5 for each experiment). Scale bar=200 μm and is applicable to both panels. I, B16/F10 melanoma cells, expressing a luciferase reporter, were injected subcutaneously to mice. Mice were divided in two groups (n=7) and treated with vehicle (DMSO) or MTX/TMECG (1 mg/kg/day and 10 mg/kg/day, respectively) over 21-days. Then, tumors were pooled and dissociated. B16/F10 cells extracted from tumors were examined for their sensitivity to the MTX/TMECG combination (1 μM and 10 μM, respectively) using quantification of the luminescence signal (left panel). […] Scale bar refers to all panels. […] Mice were treated with vehicle, MTX (1 mg/kg/day), and/or TMECG (50 mg/kg/day). […] Scale bar refers to all panels.
A, Luciferase imaging of vehicle (control), MTX, and/or TMECG-treated mice 12 days post-tumor cell injection. Firefly luciferin (120 mg/kg of mouse) was injected intraperitoneally. The values are representative of three independent experiments. […] The number of cells was estimated by extrapolation of the experimental luciferase signal to calibration curves. A straight line with a good linear correlation coefficient (0.998) was obtained by plotting luciferase signal vs number of B16/F10-luc2 cells. Treatment of mice (n=6) started 24 hr after tumor induction (Day 1). For all experiments: *p<0.05 with respect to control mice; #p<0.05 with respect to individual MTX or TMECG treatments.

[6] = tested on: SK-MEL-28 melanoma cells; test: HPLC/MS analyses of MTX, TMECG-QM and DHF in whole cell extracts; assay type: cell-based, human; details: SK-MEL-28 whole cell extracts, 24 h, MTX 1 μM and/or TMECG 10 μM; control 3.8 ± 1.1
Description: By way of example, the present inventors have shown that an active agent, such as MTX, may be used to increase TYR expression, thereby increasing the conversion of a catechin to its quinone methide form. The inventors have undertaken HPLC analyses of MTX, TMECG-QM, and DHF in whole cell extracts of SK-MEL-28 melanoma cells that were subjected to MTX (1 μM) and TMECG (10 μM) individual and combined treatments (see Table 1).

[7] = Pharmacokinetic studies in mice plasma; assay type: in vivo; details: mouse, ip, male C57BL/6 mice, intra-peritoneal TMECG 50 mg/kg alone or with MTX 50 mg/kg
Description: Pharmacokinetic studies were performed in male C57BL/6 mice after intra-peritoneal injection of MTX (50 mg/kg) and/or TMECG (50 mg/kg). Animals were anesthetized with CO2, and whole blood samples (˜0.5 mL) were collected via cardiac puncture. Samples for drug quantification were collected from different animals (in triplicate) at 5, 15, and 30 min and at 1, 2, 4, and 6 hr post-dose. Whole blood samples were transferred to lithium heparin blood collection tubes, and then centrifuged at 10,000 rpm for 10 min at 4° C. After plasma deproteinization with 5% trichloroacetic acid (TCA), MTX and TMECG plasma concentrations were calculated by HPLC. Pharmacokinetic parameters were estimated using the WinNonlin software package (WinNonlin Professional version 5.1., Pharsight Corporation, CA). WinNonlin model 200 was used for the non-compartmental analysis of the concentration-time data. The area under the plasma concentration-time curve (AUClast) from time 0 to the last point (tlast) with measurable concentration (Clast) was estimated using a linear trapezoidal approximation (AUClast). The elimination half-life (t1/2) was calculated as ln2/kel, where kel (elimination rate constant) was estimated using least squares regression analysis of the concentration-time data obtained during the terminal log-linear elimination phase. The maximum plasma concentrations (Cmax) were estimated directly from the data, with tmax being defined as the time of the first occurrence of Cmax.

[8] = Toxicology in non-tumor inoculated C57BL/6 mice; assay type: in vivo, mouse
Description: FIGS. 4A-N. MTX and TMECG combination therapy is effective in vivo. A, A375 melanoma cells were included in a human reconstructed skin model and were treated with MTX (1 μM) and/or TMECG (10 μM) for 14 days. B, B16/F10 melanoma cells were injected subcutaneously into C57/B16 mice. Images show tumor size 17 days post-injection in control and treated mice. […] C, Luciferase imaging of control and MTX/TMECG-treated mice 12 days post-tumor cell injection. Beetle luciferin (120 mg/kg of mouse) was injected intraperitoneally. The values (means±s.d.) are representative of three independent experiments. *P=0.007; **P=0.002. D, Bioluminescent imaging of livers at 14 days post-intrasplenic injection of B16-F10-luc-G5 cells from untreated and MTX/TMECG-treated mice are shown. E, Quantification of macrometastases (0-10, 10-25 or >25) after treatment with vehicle (control), MTX (1 mg/kg/day), and/or TMECG (50 mg/kg/day). F, Photomicrograph of H&E-stained, 4 μm formalin-fixed, paraffin-embedded liver sections from control (DMSO) and MTX/TMECG-treated mice (1 and 50 mg/kg/day, respectively) (5× magnification). G, MTX activation of MITF and tyrosinase activates the melanoma-specific antifolate activity of TMECG, leading to depletion of cellular dTTP and apoptosis. H, Sections stained with hematoxylin and eosin show the effect of MTX/TMECG on B16/F10 primary splenic tumors. Xenograft tumors treated with DMSO (vehicle) or MTX/TMECG (1 mg/kg/day and 50 mg/kg/day, respectively) over 14-days. […] Representative images taken from two independent experiments (n=5 for each experiment). Scale bar=200 μm and is applicable to both panels. I, B16/F10 melanoma cells, expressing a luciferase reporter, were injected subcutaneously to mice. Mice were divided in two groups (n=7) and treated with vehicle (DMSO) or MTX/TMECG (1 mg/kg/day and 10 mg/kg/day, respectively) over 21-days. Then, tumors were pooled and dissociated. B16/F10 cells extracted from tumors were examined for their sensitivity to the MTX/TMECG combination (1 μM and 10 μM, respectively) using quantification of the luminescence signal (left panel). J, The histogram represents the number of B16/F10-luc2 cells remaining after 3 days of MTX/TMECG treatment with respect to vehicle treated controls (100%). […] K, The morphology of tumor dissociated B16/F10-luc2 cells before and after of MTX/TMECG treatment. Scale bar refers to all panels. L, Histograms represent the number of copies of TYR mRNA for every 1×10^3 copies of β-actin±SD of three independent experiments. […]
To explore the toxicity of TMECG and MTX, these agents (at indicated concentrations) were administrated intradermally to the back of non-tumor inoculated female C57BL/6 mice (n=10), and body weight monitored every other day. […]

[9] = tested on: B16/F10 melanoma cells; test: Subcutaneous B16/F10 melanoma model in C57BL/6 mice; assay type: in vivo, mouse; details: compared to untreated mice
Description: FIGS. 4A-N. MTX and TMECG combination therapy is effective in vivo. A, A375 melanoma cells were included in a human reconstructed skin model and were treated with MTX (1 μM) and/or TMECG (10 μM) for 14 days. B, B16/F10 melanoma cells were injected subcutaneously into C57/B16 mice. Images show tumor size 17 days post-injection in control and treated mice. […] C, Luciferase imaging of control and MTX/TMECG-treated mice 12 days post-tumor cell injection. Beetle luciferin (120 mg/kg of mouse) was injected intraperitoneally. The values (means±s.d.) are representative of three independent experiments. *P=0.007; **P=0.002. […] E, Quantification of macrometastases (0-10, 10-25 or >25) after treatment with vehicle (control), MTX (1 mg/kg/day), and/or TMECG (50 mg/kg/day). […] B16/F10 cells extracted from tumors were examined for their sensitivity to the MTX/TMECG combination (1 μM and 10 μM, respectively) using quantification of the luminescence signal (left panel). […]
Animals were bred and maintained according to the Spanish legislation on the ‘Protection of Animals used for Experimental and other Scientific Purposes’ and in accordance with the directives of the European community. […] Primary spleen tumors and hepatic metastases at 12 and 14 days, respectively, were analyzed using the IVIS Imaging System (Caliper Life Sciences). […]

[10] = tested on: low passage patient-derived melanoma cells bearing MEK and BRAF mutations; test: MTT assay on low passage patient-derived melanoma cell lines with BRAF and MEK1 or MEK2 mutations; assay type: cell-based, human; details: BRAF-inhibitor and MEK-inhibitor resistant lines; MTX/TMECG 1 μM/10 μM, PLX-4720 1 μM
Description: G, MTT assay indicating effects of MTX/TMECG (1 μM/10 μM) and PLX-4720 (1 μM) treatment on low passage patient-derived melanoma cells bearing indicated MEK and BRAF mutations. Cells were treated with vehicle only (•), PLX-4720 ( ), or with a combination of MTX+TMECG (Δ). Note the number of cells at the start of the experiment was at the limit of detection. […] Error bars show mean±SD.
MTX/TMECG was tested against two low passage melanoma cell lines (fewer than 10 passages) derived from patients with activating BRAF mutations that are resistant to both BRAF-inhibitor and MEK-inhibitor therapy, owing to the presence of activating mutations in MEK1 or MEK2 (Nikolaev et al., 2011). In the MTT assays (FIGS. 2G and 5A) a low starting number of cells (2×10^3) was used, so that any proliferation could be readily visualized.
Cell viability was evaluated using the 3-(4,5-dimethylthiazol-2-yl)-2,5-diphenyltetrazolium bromide (MTT) cell proliferation assay.

Chain of 5-cytosine DNA methyltransferase-1 (P26358 whole entry): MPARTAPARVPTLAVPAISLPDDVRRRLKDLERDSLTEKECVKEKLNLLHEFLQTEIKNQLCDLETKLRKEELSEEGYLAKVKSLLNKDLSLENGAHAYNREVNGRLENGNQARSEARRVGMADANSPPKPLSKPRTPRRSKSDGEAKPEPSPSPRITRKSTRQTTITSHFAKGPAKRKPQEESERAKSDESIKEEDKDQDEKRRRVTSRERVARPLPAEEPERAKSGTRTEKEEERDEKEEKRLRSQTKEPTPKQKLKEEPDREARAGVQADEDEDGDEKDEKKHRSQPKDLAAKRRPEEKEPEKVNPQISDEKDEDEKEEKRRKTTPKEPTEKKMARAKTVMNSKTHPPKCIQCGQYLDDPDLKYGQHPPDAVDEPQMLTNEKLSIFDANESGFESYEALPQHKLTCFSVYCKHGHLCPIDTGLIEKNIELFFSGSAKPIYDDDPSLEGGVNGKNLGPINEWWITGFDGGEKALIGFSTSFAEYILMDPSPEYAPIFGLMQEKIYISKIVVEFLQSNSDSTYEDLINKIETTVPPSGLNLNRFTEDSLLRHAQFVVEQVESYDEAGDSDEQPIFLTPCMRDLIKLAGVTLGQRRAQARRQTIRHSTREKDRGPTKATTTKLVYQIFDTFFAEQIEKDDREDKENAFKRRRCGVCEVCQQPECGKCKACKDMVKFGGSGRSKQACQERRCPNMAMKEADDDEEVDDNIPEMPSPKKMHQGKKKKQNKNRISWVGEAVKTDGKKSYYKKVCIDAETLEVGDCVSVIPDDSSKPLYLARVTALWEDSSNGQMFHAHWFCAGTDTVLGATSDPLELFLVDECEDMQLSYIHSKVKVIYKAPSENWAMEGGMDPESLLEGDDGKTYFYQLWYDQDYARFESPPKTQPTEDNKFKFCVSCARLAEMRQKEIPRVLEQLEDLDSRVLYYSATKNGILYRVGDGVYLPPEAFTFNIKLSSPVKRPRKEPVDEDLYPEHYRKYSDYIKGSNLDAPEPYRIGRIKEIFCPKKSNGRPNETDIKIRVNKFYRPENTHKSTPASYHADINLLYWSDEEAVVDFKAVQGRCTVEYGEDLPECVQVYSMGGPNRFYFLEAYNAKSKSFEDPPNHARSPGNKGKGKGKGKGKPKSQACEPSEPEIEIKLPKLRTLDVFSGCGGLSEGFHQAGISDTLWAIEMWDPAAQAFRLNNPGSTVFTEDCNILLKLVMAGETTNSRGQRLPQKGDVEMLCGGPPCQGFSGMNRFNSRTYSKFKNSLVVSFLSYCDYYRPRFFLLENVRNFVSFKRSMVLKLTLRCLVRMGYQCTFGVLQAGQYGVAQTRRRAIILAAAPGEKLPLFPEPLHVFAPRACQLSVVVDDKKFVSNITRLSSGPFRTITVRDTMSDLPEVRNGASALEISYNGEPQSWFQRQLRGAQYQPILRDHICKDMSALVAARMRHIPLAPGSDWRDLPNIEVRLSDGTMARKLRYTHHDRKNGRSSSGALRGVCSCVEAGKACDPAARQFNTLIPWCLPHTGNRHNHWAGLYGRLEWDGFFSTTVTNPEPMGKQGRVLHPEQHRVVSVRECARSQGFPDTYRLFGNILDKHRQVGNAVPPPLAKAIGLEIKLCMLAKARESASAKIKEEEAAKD
Chain of glutamate dehydrogenase (P00367 54-558): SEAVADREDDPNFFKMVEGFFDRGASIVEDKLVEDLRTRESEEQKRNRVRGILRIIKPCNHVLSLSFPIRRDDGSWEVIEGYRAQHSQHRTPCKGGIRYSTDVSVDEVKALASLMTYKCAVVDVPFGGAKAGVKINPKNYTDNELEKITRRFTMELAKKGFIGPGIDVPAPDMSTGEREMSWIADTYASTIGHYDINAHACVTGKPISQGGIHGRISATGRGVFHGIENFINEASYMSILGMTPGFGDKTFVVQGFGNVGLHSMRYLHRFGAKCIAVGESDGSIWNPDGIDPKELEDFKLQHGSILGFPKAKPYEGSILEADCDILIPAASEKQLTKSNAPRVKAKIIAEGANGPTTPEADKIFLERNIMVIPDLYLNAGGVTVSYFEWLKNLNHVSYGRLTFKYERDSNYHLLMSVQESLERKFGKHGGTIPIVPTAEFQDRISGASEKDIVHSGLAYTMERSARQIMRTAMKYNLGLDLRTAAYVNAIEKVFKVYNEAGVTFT

## COc1cc(C(=O)O[C@H](Cc2c(O)cc(O)cc2O)C(=O)c2ccc(O)c(O)c2)cc(OC)c1OC [TMECG-QM]
[1]
  inhibition of the proteasome: does not inhibit
[2]
  inhibition of glutamate dehydrogenase: does not inhibit
[3]
  inhibition of 5-cytosine DNA methyltransferase-1: does not inhibit
[4]
  inhibition constant for DHFR: nanomolar order

## COc1cc(C(=O)O[C@@H]2Cc3c(O)cc(O)cc3O[C@@H]2c2ccc(O)c(O)c2)cc(OC)c1OC [TMECG, 3,4,5-trimethoxy-epicatechin-3-gallate]
[5]; 14 days treatment, MTX 1 mg/kg/day and/or TMECG 50 mg/kg/day
  necrotic areas in splenic tumors: 11%±3%
[5]; MTX or TMECG alone, 12 days post-tumor cell injection
  effect on in vivo luciferase signal: around 2 fold
[6]
  DHF intracellular concentration: 4.8 ± 0.9 pmol/10^6 cells
[7]; read-out: TMECG Parameters AUC
  AUC: 79100 ng·h/mL
[7]; read-out: TMECG Parameters Cmax
  Cmax: 39300 ng/mL
[7]; read-out: TMECG Parameters Tmax
  Tmax: 5.4 min
[7]; read-out: TMECG Parameters t1/2 (converted)
  half-life: 107 min
[8]; TMECG-treated versus untreated groups
  mouse body weight: not significant
[8]; preliminary observations
  toxicity in vivo: not toxic in vivo
[9]
  tumor growth: significantly reduced

## CCCS(=O)(=O)Nc1ccc(F)c(C(=O)c2c[nH]c3ncc(Cl)cc23)c1F [PLX-4720]
[10]
  proliferation (MTT): failed to impact significantly on proliferation
